Measurements as given in ChEMBL document CHEMBL6083263, “The Discovery of MORF-627, a Highly Selective Conformationally-Biased Zwitterionic Integrin αvβ6 Inhibitor for Fibrosis” (J Med Chem, 2024).
Activity calls are given as the source filed them. The rule behind the calls is not given here.

What was measured:
Mus musculus [1] = test: Antifibrotic activity against BLM-induced po dosed C57BL/6J mouse acute lung fibrosis model assessed as reduction in modified ashcroft score administered twice daily for 14 days; assay type: functional; parameters: scale not given: the % may be the effect or the level left; conditions: time 14 day
[2] = Cmax in C57BL/6 mouse at 30 mg/kg, po measured upto 24 hrs by LC/MS-MS analysis; assay type: ADME, organism-based; conditions: in vivo
[3] = AUCinfinity in C57BL/6 mouse at 1 mg/kg, iv measured upto 24 hrs by LC/MS-MS analysis; assay type: ADME, organism-based; conditions: in vivo
[4] = AUCinfinity in Sprague-Dawley rat at 30 mg/kg, po measured upto 24 hrs by LC/MS-MS analysis; assay type: ADME, organism-based; conditions: in vivo
[5] = AUCinfinity in C57BL/6 mouse at 30 mg/kg, po measured upto 24 hrs by LC/MS-MS analysis; assay type: ADME, organism-based; conditions: in vivo
Integrin alpha-V/beta-6 [6] = target: T1, Integrin alpha-V/beta-6 (Homo sapiens, UniProt P06756+P18564); test: Inhibition of Integrin alphaVbeta6 (unknown origin) mediated TGF-beta1 activation expressed in primary epithelial cells cocultured with idiopathic pulmonary fibroblast cells assessed as downregulation of COL3A1 mRNA expression measured after 72 hrs by qPCR assay; assay type: cell-based, Epithelial cell
[7] = Clearance in C57BL/6 mouse at 1 mg/kg, iv measured upto 24 hrs by LC/MS-MS analysis; assay type: ADME, organism-based; conditions: in vivo
[8] = Tmax in C57BL/6 mouse at 30 mg/kg, po measured upto 24 hrs by LC/MS-MS analysis; assay type: ADME, organism-based; conditions: in vivo
[9] = Fraction of compound absorbed into portal vein (FaFg) in cynomolgus monkey at 30 mg/kg, po measured upto 24 hrs by LC/MS-MS analysis; assay type: ADME, organism-based, Macaca fascicularis; conditions: in vivo
[10] = Fraction of compound absorbed into portal vein (FaFg) in C57BL/6 mouse at 30 mg/kg, po measured upto 24 hrs by LC/MS-MS analysis; assay type: ADME, organism-based; conditions: in vivo
[11] = AUCinfinity in cynomolgus […] at 5 mg/kg, po measured upto 24 hrs by LC/MS-MS analysis; assay type: ADME, organism-based, Macaca fascicularis; conditions: in vivo
Integrin alpha-V/beta-6 [12] = target: T1, Integrin alpha-V/beta-6; test: Inhibition of Integrin alphaVbeta6 (unknown origin) mediated TGF-beta1 activation expressed in primary epithelial cells cocultured with idiopathic pulmonary fibroblast cells assessed as downregulation of FN mRNA expression measured after 72 hrs by qPCR assay; assay type: cell-based, Epithelial cell
[13] = Volume of distribution at steady state in Beagle dog at 1 mg/kg, iv measured upto 24 hrs by LC/MS-MS analysis; assay type: ADME, organism-based, Canis lupus familiaris; conditions: in vivo, read-out: Vdss
[14] = Half-life in C57BL/6 mouse at 1 mg/kg, iv measured upto 24 hrs by LC/MS-MS analysis; assay type: ADME, organism-based; conditions: in vivo
Integrin alpha-V/beta-6 [15] = target: T1, Integrin alpha-V/beta-6; test: Displacement of fluorescein labeled GRGDLGRL from human Integrin alphaVbeta6 preincubated for 15 mins followed by fluorescein labeled GRGDLGRL addition and measured after 1 hr by fluorescence polarization assay; assay type: protein-complex assay
Integrin alpha-V/beta-6 [16] = target: T1, Integrin alpha-V/beta-6; test: Binding affinity to human Integrin alphaVbeta6 overexpressed in HEK293 cells incubated for 15 mins in presence of human serum by flow cytometry assay; assay type: cell-based
[17] = AUCinfinity in cynomolgus monkey at 1 mg/kg, iv measured upto 24 hrs by LC/MS-MS analysis; assay type: ADME, organism-based, Macaca fascicularis; conditions: in vivo
[18] = Half-life in Beagle dog at 1 mg/kg, iv measured upto 24 hrs by LC/MS-MS analysis; assay type: ADME, organism-based, Canis lupus familiaris; conditions: in vivo
[19] = Volume of distribution at steady state in C57BL/6 mouse at 1 mg/kg, iv measured upto 24 hrs by LC/MS-MS analysis; assay type: ADME, organism-based; conditions: in vivo, read-out: Vdss
[20] = Half-life in cynomolgus monkey at 1 mg/kg, iv measured upto 24 hrs by LC/MS-MS analysis; assay type: ADME, organism-based, Macaca fascicularis; conditions: in vivo
[21] = Octanol/water partition coefficient, logD of the compound; assay type: physicochemical
[22] = Tmax in Sprague-Dawley rat at 30 mg/kg, po measured upto 24 hrs by LC/MS-MS analysis; assay type: ADME, organism-based; conditions: in vivo
Mus musculus [23] = test: Antifibrotic activity against BLM-induced C57BL/6J mouse acute lung fibrosis model assessed as reduction in collagen fiber density at 3 mg/kg, po administered twice daily for 14 days; assay type: functional, organism-based; conditions: time 14.0 day
[24] = Half-life in Sprague-Dawley rat at 1 mg/kg, iv measured upto 24 hrs by LC/MS-MS analysis; assay type: ADME, organism-based; conditions: in vivo
[25] = Oral bioavailability in C57BL/6 mouse at 30 mg/kg measured upto 24 hrs by LC/MS-MS analysis; assay type: ADME, organism-based; conditions: in vivo
[26] = Oral bioavailability in Sprague-Dawley rat at 10 mg/kg measured upto 24 hrs by LC/MS-MS analysis; assay type: ADME, organism-based; conditions: in vivo
[27] = Clearance in cynomolgus monkey at 1 mg/kg, iv measured upto 24 hrs by LC/MS-MS analysis; assay type: ADME, organism-based, Macaca fascicularis; conditions: in vivo
Mus musculus [28] = test: Antifibrotic activity against BLM-induced C57BL/6J mouse acute lung fibrosis model assessed as reduction in picrosirius red positive area at 1 to 10 mg/kg, po administered twice daily for 14 days; assay type: functional, organism-based; conditions: dose 1-10 mg/kg, time 14.0 day
Mus musculus [29] = test: Antifibrotic activity against BLM-induced C57BL/6J mouse acute lung fibrosis model assessed as reduction in total collagen deposition at 3 mg/kg, po administered twice daily for 14 days; assay type: functional, organism-based; conditions: time 14.0 day
[30] = Oral bioavailability in cynomolgus […] at 5 mg/kg measured upto 24 hrs by LC/MS-MS analysis; assay type: ADME, organism-based, Macaca fascicularis; conditions: in vivo
[31] = Cmax in cynomolgus […] at 5 mg/kg, po measured upto 24 hrs by LC/MS-MS analysis; assay type: ADME, organism-based, Macaca fascicularis; conditions: in vivo
Mus musculus [32] = test: Antifibrotic activity against BLM-induced C57BL/6J mouse acute lung fibrosis model assessed as reduction in pSMAD2:total protein ratio at 0.1 to 100 mg/kg, po administered twice daily for 3 days; assay type: functional, organism-based; conditions: dose 0.1-100 mg/kg, time 3.0 day
Mus musculus [33] = test: Antifibrotic activity against BLM-induced C57BL/6J mouse acute lung fibrosis model assessed as reduction in modified ashcroft score at 1 to 10 mg/kg, po administered twice daily for 14 days; assay type: functional; parameters: scale not given: the % may be the effect or the level left; conditions: dose 1-10 mg/kg, time 14 day
[34] = Half-life in C57BL/6 mouse at 30 mg/kg, po measured upto 24 hrs by LC/MS-MS analysis; assay type: ADME, organism-based; conditions: in vivo
Integrin alpha-V/beta-6 [35] = target: T1, Integrin alpha-V/beta-6; test: Inhibition of Integrin alphaVbeta6 (unknown origin) mediated TGF-beta1 activation expressed in HEK293 cells cocultured with MLEC cells expressing luciferase reporter; assay type: cell-based
[36] = AUCinfinity in Beagle dog at 1 mg/kg, iv measured upto 24 hrs by LC/MS-MS analysis; assay type: ADME, organism-based, Canis lupus familiaris; conditions: in vivo
[37] = Half-life in cynomolgus […] at 5 mg/kg, po measured upto 24 hrs by LC/MS-MS analysis; assay type: ADME, organism-based, Macaca fascicularis; conditions: in vivo
Integrin alpha-V/beta-6 [38] = target: T1, Integrin alpha-V/beta-6; test: Inhibition of Integrin alphaVbeta6 (unknown origin) mediated TGF-beta1 activation expressed in primary epithelial cells cocultured with idiopathic pulmonary fibroblast cells assessed as downregulation of COL1A1 mRNA expression measured after 72 hrs by qPCR assay; assay type: cell-based, Epithelial cell
[39] = Clearance in Sprague-Dawley rat at 1 mg/kg, iv measured upto 24 hrs by LC/MS-MS analysis; assay type: ADME, organism-based; conditions: in vivo
Integrin alpha-V/beta-8 = Integrin alpha-V/beta-8 (Homo sapiens, UniProt P06756+P26012); test: Displacement of fluorescein labeled GRGDLGRL from human Integrin alphaVbeta8 preincubated for 15 mins followed by fluorescein labeled GRGDLGRL addition and measured after 1 hr by fluorescence polarization assay; assay type: protein-complex assay
[40] = Cmax in Sprague-Dawley rat at 30 mg/kg, po measured upto 24 hrs by LC/MS-MS analysis; assay type: ADME, organism-based; conditions: in vivo
[41] = Half-life in Sprague-Dawley rat at 30 mg/kg, po measured upto 24 hrs by LC/MS-MS analysis; assay type: ADME, organism-based; conditions: in vivo
Mus musculus [42] = test: Antifibrotic activity against BLM-induced C57BL/6J mouse acute lung fibrosis model assessed as reduction in collagen structure index at 3 mg/kg, po administered twice daily for 14 days; assay type: functional, organism-based; conditions: time 14.0 day
[43] = Volume of distribution at steady state in cynomolgus monkey at 1 mg/kg, iv measured upto 24 hrs by LC/MS-MS analysis; assay type: ADME, organism-based, Macaca fascicularis; conditions: in vivo, read-out: Vdss
[44] = Volume of distribution at steady state in Sprague-Dawley rat at 1 mg/kg, iv measured upto 24 hrs by LC/MS-MS analysis; assay type: ADME, organism-based; conditions: in vivo, read-out: Vdss
Mus musculus [45] = test: Antifibrotic activity against BLM-induced po dosed C57BL/6J mouse acute lung fibrosis model assessed as reduction in pSMAD2 level administered twice daily for 3 days; assay type: functional, organism-based; conditions: 72 h
[46] = Oral bioavailability in Sprague-Dawley rat at 30 mg/kg measured upto 24 hrs by LC/MS-MS analysis; assay type: ADME, organism-based; conditions: in vivo
[47] = Fraction of compound absorbed into portal vein (FaFg) in Sprague-Dawley rat at 30 mg/kg, po measured upto 24 hrs by LC/MS-MS analysis; assay type: ADME, organism-based; conditions: in vivo
Integrin alpha-V/beta-1 = Integrin alpha-V/beta-1 (Homo sapiens, UniProt P05556+P06756); test: Displacement of fluorescein labeled ACRGDGWC from human Integrin alphaVbeta1 preincubated for 15 mins followed by fluorescein labeled ACRGDGWC addition and measured after 1 hr by fluorescence polarization assay; assay type: protein-complex assay
[48] = AUCinfinity in Sprague-Dawley rat at 1 mg/kg, iv measured upto 24 hrs by LC/MS-MS analysis; assay type: ADME, organism-based; conditions: in vivo
[49] = Tmax in cynomolgus […] at 5 mg/kg, po measured upto 24 hrs by LC/MS-MS analysis; assay type: ADME, organism-based, Macaca fascicularis; conditions: in vivo

T1 sequence (P06756 31-889 limits assumed): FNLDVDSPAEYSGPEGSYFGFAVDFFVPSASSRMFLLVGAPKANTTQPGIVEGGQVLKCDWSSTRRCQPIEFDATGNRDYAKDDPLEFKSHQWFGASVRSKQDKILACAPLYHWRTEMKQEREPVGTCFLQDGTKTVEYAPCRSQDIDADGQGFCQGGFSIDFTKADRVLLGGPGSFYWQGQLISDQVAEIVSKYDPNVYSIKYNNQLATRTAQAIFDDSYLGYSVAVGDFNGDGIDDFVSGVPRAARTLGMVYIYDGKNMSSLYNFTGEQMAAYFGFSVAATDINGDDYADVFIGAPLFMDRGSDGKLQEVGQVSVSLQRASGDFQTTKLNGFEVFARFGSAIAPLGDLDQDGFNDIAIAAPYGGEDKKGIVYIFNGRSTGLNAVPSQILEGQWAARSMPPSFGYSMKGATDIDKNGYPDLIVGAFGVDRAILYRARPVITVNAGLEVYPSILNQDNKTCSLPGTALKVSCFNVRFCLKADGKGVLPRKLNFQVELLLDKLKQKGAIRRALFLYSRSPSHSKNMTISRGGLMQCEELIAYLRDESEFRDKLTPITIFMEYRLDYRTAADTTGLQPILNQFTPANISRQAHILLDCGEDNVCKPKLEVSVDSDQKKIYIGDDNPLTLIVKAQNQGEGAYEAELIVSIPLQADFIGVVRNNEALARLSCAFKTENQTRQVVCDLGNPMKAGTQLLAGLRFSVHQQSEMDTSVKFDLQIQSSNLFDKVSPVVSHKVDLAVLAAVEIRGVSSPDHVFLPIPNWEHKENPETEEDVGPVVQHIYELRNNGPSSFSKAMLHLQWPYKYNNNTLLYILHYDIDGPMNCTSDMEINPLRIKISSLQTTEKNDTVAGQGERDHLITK
T1 sequence (P06756 891-1048 limits assumed): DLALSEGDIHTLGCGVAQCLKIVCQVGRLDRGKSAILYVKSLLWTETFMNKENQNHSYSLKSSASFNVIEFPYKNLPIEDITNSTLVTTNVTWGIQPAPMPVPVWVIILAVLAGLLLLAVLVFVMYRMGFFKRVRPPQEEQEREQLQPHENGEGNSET
T1 sequence (P18564 22-788 limits assumed): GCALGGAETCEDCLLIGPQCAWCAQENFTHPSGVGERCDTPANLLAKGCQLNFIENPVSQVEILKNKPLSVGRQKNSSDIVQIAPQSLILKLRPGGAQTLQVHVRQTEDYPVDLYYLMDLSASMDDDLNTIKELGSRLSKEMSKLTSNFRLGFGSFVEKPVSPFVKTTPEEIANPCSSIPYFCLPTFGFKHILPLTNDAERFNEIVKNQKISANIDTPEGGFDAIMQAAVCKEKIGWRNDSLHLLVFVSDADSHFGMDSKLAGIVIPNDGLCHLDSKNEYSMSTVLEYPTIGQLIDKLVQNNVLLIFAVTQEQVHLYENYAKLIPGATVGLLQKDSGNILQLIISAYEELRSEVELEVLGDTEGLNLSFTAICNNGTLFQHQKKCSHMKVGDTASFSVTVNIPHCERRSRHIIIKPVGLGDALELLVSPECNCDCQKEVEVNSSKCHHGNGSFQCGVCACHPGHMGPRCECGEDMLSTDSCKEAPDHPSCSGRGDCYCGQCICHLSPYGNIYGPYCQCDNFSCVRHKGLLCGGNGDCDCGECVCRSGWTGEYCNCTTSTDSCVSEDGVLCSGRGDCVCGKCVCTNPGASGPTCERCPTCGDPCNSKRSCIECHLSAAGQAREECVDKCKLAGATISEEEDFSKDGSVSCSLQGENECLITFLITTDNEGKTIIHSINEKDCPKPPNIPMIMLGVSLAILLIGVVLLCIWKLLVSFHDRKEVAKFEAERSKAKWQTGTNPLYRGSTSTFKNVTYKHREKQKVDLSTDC
Chain of Integrin alpha-V/beta-8 (P06756 31-889 limits assumed): as the sequence (P06756 31-889 limits assumed) above
Chain of Integrin alpha-V/beta-8 (P06756 891-1048 limits assumed): as the sequence (P06756 891-1048 limits assumed) above
Chain of Integrin alpha-V/beta-8 (P26012 43-769 limits assumed): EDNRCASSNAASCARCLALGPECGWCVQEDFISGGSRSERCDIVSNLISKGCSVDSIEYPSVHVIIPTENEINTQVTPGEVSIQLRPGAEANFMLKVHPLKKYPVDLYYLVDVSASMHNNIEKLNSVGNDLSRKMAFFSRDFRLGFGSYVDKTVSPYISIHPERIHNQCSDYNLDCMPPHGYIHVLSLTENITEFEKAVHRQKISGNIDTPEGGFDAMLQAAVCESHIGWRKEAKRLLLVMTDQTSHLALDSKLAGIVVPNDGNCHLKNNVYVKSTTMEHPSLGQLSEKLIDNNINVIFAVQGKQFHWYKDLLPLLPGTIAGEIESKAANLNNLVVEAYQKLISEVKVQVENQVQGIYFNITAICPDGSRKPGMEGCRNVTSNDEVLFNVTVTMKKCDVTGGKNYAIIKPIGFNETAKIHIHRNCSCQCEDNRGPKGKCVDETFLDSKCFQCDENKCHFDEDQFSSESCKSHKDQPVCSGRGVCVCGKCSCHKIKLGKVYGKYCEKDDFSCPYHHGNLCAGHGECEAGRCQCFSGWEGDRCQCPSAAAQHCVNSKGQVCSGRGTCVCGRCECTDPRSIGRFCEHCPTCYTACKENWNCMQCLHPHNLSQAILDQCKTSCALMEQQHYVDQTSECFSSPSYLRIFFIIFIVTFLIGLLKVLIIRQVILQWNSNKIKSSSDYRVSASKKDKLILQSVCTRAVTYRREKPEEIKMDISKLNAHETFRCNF
Chain of Integrin alpha-V/beta-1 (P05556 21-798 limits assumed): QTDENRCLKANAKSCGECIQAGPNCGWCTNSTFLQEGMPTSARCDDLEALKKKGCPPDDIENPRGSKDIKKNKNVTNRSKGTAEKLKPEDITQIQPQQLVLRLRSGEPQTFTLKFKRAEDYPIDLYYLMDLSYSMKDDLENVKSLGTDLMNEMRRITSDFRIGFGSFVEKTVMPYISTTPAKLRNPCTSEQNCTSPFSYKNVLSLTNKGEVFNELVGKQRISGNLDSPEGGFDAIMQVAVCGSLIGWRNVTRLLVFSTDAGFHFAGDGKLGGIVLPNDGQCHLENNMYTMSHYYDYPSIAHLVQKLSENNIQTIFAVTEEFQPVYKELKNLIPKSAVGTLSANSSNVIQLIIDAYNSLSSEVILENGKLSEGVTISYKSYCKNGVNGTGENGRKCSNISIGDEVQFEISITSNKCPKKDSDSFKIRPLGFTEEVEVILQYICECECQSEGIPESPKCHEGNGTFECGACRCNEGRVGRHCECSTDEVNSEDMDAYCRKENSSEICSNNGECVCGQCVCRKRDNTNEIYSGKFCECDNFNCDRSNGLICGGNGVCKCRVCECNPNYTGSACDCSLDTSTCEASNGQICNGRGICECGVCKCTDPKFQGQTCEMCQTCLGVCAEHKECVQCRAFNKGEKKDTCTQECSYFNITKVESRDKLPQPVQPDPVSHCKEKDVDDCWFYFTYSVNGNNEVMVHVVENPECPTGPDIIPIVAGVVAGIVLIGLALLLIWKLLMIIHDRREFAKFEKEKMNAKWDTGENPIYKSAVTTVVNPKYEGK
Chain of Integrin alpha-V/beta-1 (P06756 31-889 limits assumed): as the sequence (P06756 31-889 limits assumed) above
Chain of Integrin alpha-V/beta-1 (P06756 891-1048 limits assumed): as the sequence (P06756 891-1048 limits assumed) above

Cc1cccc(-c2[nH]c(C(C)(C)C)nc2-c2ccc3nccnc3c2)n1
Activity (Mus musculus [1]): 37%

O=C(O)[C@H](c1cc(F)ccc1[C@@H]1CCC2(CC2)CO1)N1CC[C@@H](OCCCCc2ccc3c(n2)NCCC3)C1
Cmax [2]: 7600 ng/mL
AUC(0-inf) [3]: 940 ng·h/mL
AUC(0-inf) [4]: 14000 ng·h/mL
AUC(0-inf) [5]: 19000 ng·h/mL
IC50 (Integrin alpha-V/beta-6 [6]): 12.8 nM
clearance [7]: 18 mL/min/kg
Tmax [8]: 0.25 h
FaFg [9]: 21%
FaFg [10]: 83%
AUC(0-inf) [11]: 1600 ng·h/mL
IC50 (Integrin alpha-V/beta-6 [12]): 20.3 nM
Vd [13]: 1.84 L/kg
half-life [14]: 1.9 h
IC50 (Integrin alpha-V/beta-6 [15]): 1.1 nM
IC50 (Integrin alpha-V/beta-6 [16]): 9.2 nM
AUC(0-inf) [17]: 1590 ng·h/mL
half-life [18]: 4.9 h
Vd [19]: 2.07 L/kg
half-life [20]: 4.9 h
logD [21]: 2.2
Tmax [22]: 0.25 h
Activity (Mus musculus [23]): Active
half-life [24]: 1.9 h
bioavailability [25]: 66%
bioavailability [26]: 22%
clearance [27]: 10.5 mL/min/kg
Activity (Mus musculus [28]): Active; No Statistical Significant Activity
Activity (Mus musculus [29]): Active
bioavailability [30]: 16%
Cmax [31]: 540 ng/mL
Activity (Mus musculus [32]): Active; Showed Significant Activity At 10 To 30 Mg/Kg
Activity (Mus musculus [33]): 33%
t1/2 [34]: 2.6 h
IC50 (Integrin alpha-V/beta-6 [35]): 2.63 nM
AUC [36]: 2970 ng·h/mL
t1/2 [37]: 4.8 h
IC50 (Integrin alpha-V/beta-6 [38]): 1.8 nM
clearance [39]: 28 mL/min/kg
IC50 (Integrin alpha-V/beta-8): 330 nM
Cmax [40]: 14000 ng/mL
t1/2 [41]: 1.8 h
Activity (Mus musculus [42]): Active
Vd [43]: 2.45 L/kg
Vd [44]: 3.1 L/kg
IC50 (Mus musculus [45]): 8.3 nM
bioavailability [46]: 74%
FaFg [47]: 123%
IC50 (Integrin alpha-V/beta-1): 490 nM
AUC(0-inf) [48]: 610 ng·h/mL
Tmax [49]: 1 h
